Results taken from patent US20090012088A1 (priority 2005, published 2009).
Entries after “also recorded” stand apart in the source; their conditions may differ. Where two headings read alike, the source gives them in different places.

How the values were obtained:
[1] = system: neuronally differentiated PC-12 cells; assay: Protection from MPP+ induced toxicity in neuronally differentiated PC-12 cells; format: cell-based; settings: 10 μM MPP+, read-out: EC50 (IC50) for protection from MPP+ induced cell death
Procedure: (§1) In vivo MPTP is metabolized to its active form, the 1-methyl-4-phenylpyridinium ion (MPP^+), and MPP^+ has proven very useful in a variety of cell culture models of PD. To determine the protective effect of PIP-1 on cells subjected to MPP^+ insult, PC-12 (differentiated as above) and SK-N-SH (differentiated with retinoic acid for 12 days) cells are treated with 10 μM MPP^+ and a range of PIP-1 concentrations, and cell death is assessed by propidium iodide staining and flow cytometry. […] As shown in FIGS. 20A and 20B, PIP-1 also protects differentiated PC-12 and SK-N-SH cells from rotenone-induced toxicity as well.
(§2) Cell culture conditions: HL-60 and SK-N-SH cells are grown in RPMI 1640 media supplemented with 10% FBS and PC-12 cells are grown in RPMI 1640 media supplemented with 10% HS and 5% FBS. All cell lines are incubated at 37° C. in a 5% CO2, 95% air atmosphere. HL-60 cells are split every two to three days as needed and SK-N-SH cells are split when they reach approximately 90% confluency at a 1:6 ratio. […]
(§3) Protection of Rotenone and MPP^+ induced toxicity in PC-12 and SK-N-SH cells: SK-N-SH and PC-12 cells are neuronally differentiated as described above. […] The cells are then washed in PBS and the viability is determined by adding propidium iodide to 1 μg/mL and measuring the fluorescent intensity of each cell by flow cytometry.

[2] = system: neuronally differentiated PC-12 cells; assay: Protection from rotenone induced toxicity in neuronally differentiated PC-12 cells; format: cell-based
Procedure: Rotenone is a complex I poison and is widely used in cell culture and animal models of PD. (20, 31, 32) To determine if PIP-1 protects cells from rotenone insult, PC-12 cells are neuronally differentiated (with neuronal growth factor β for 10 days) and then treated with 10 μM rotenone and a range of PIP-1 concentrations. After 72 hours, cell death is assessed using propidium iodide staining as measured by flow cytometry. […] To determine the features on PIP-1 that are important for PARG inhibition and cell protection, three derivatives are constructed that lacked key functionality (see FIG. 19 compounds labeled 3, 4 and 5).
Cell culture conditions: HL-60 and SK-N-SH cells are grown in RPMI 1640 media supplemented with 10% FBS and PC-12 cells are grown in RPMI 1640 media supplemented with 10% HS and 5% FBS. All cell lines are incubated at 37° C. in a 5% CO2, 95% air atmosphere. HL-60 cells are split every two to three days as needed and SK-N-SH cells are split when they reach approximately 90% confluency at a 1:6 ratio. SK-N-SH cells are differentiated by adding media containing 10 μM retinoic acid (in DMSO). Media is replaced every other day and cells are differentiated for a total of 12 days. PC-12 cells are differentiated by adding media containing 25 ng/mL Neuronal Growth Factro β. Media is replaced every other day and cells are differentiated for a total of 10 days. Differentiation is observed by microscopy.
(§4) Protection of Rotenone and MPP^+ induced toxicity in PC-12 and SK-N-SH cells: SK-N-SH and PC-12 cells are neuronally differentiated as described above. 10 μM rotenone, 10 μM MPP^+ and various concentrations of PIP-1 or its derivatives are added to the cells and incubated for 72 h. The cells are then washed in PBS and the viability is determined by adding propidium iodide to 1 μg/mL and measuring the fluorescent intensity of each cell by flow cytometry.

PARG [3] = assay: Table 2: small molecules tested for PARG inhibition activity (relative to PIP-1); format: biochemical
[4] = system: neuronally differentiated SK-N-SH cells; assay: Protection from rotenone induced toxicity in neuronally differentiated SK-N-SH cells; format: cell-based; settings: Homo sapiens, 10 μM rotenone
Procedure: as §1, §2, §3

[5] = system: neuronally differentiated SK-N-SH cells; assay: Protection from MPP+ induced toxicity in neuronally differentiated SK-N-SH cells; format: cell-based; settings: 10 μM MPP+, 72 h, read-out: EC50 (IC50) for protection from MPP+ induced cell death
Procedure: as §1, §2, §3

U-937 cells = assay: Protection against H2O2 treatment of U-937 cells (cell survival); format: cell-based; settings: FIG. 13
Procedure: We have made multiple derivatives of PIP-1; these compounds are shown below in Table 2 and in FIG. 11 and labeled Structures 1-39. The neuroprotective effects of structures 1-26 were tested in the cellular assay and compared to the neuroprotective effect of PIP-1 (FIG. 13).
PIP-1 and structures 1-26 were screened for protection against H2O2 treatment of U-937 cells FIG. 13.

[6] = system: differentiated PC-12 and SK-N-SH cells; assay: Cellular toxicity in differentiated PC-12 and SK-N-SH cells; format: cell-based; settings: at concentrations up to 100 μM
Procedure: as §1, §4

PARG [7] = molecular target: PARG (Bos taurus, UniProt O02776); assay: Inhibition of PARG activity in vitro (quantitation of free ADP-ribose with benzamidine, fluorescence); format: biochemical; set-up: purchased Biomol
Procedure: PARG assay: Production and purification of PAR. PARP-1 (20 units) is added to 900 μL of PARP assay buffer containing 1 mM NAD^+ and 22.5 μg activated DNA. This reaction was run at 37° C. for 30 min and stopped by the addition of 300 μL of cold 100% trichloroacetic acid. The proteins thus precipitated are collected by centrifugation at 18,000 g for 30 min at 4° C. After removal of the supernatant, 1 mL of 1 M NaOH and 100 mM EDTA are added to the pellet and incubated for 2 h at 37° C. to cleave the PAR from the PARP protein acceptor. Then 9 mL of PAR buffer A (250 mM ammonium acetate, 6 M guanidinium HCl, 10 mM EDTA, pH 9.0) is added to the PAR and applied to a PROSEP-PB (Millipore) phenyl boronate column that is pre-equilibrated with PAR buffer A. The flowthrough is then reapplied to the column to ensure that all PAR is bound. The column is then washed with 25 mL of PAR buffer A, followed by 10 mL of PAR buffer B (1 M ammonium acetate and 1 mM EDTA, pH 9.0). The bound PAR is eluted with 4 mL of water collected in 1-mL fractions. Fractions containing PAR are pooled and concentrated. The concentration, measured as monomer, is determined by measuring the absorbance at 258 nm. PAR has an extinction coefficient of 13,500 cm^−1 at 258 nm.
Inhibition of PARG Activity: To determine the PARG IC50 values of the compounds, 39 μL of a 25.6 μM solution of PAR in PARG assay (50 mM KCl, 50 mM KH2PO4, pH 7.2) buffer and 1 μL of the compounds at varying concentrations (in PARG assay buffer) are added into the wells of a 384-well plate. The reaction is initiated by the addition of 10 μL of PARG (Biomol) at a concentration of 1 ng/ml (in PARG assay buffer), bringing the final concentration to […] and 20 μM PAR with varying concentrations of compounds in a total volume of 50 μL. The plate is incubated for 20 min at room temperature. The amount of free ADP-ribose hemiacetals is determined by the addition of 5 μL of an aqueous 8.5M KOH solution and 5 μL of an aqueous 850 μM benzamidine solution to each well. The plate is then incubated for 10 min in an oven set at 110° C. The plate is allowed to cool and then read on a Criterion Analyst AD with an excitation of 360 nm and an emission of 445 nm.

Chain of PARG (Bos taurus, UniProt O02776) (O02776 whole entry): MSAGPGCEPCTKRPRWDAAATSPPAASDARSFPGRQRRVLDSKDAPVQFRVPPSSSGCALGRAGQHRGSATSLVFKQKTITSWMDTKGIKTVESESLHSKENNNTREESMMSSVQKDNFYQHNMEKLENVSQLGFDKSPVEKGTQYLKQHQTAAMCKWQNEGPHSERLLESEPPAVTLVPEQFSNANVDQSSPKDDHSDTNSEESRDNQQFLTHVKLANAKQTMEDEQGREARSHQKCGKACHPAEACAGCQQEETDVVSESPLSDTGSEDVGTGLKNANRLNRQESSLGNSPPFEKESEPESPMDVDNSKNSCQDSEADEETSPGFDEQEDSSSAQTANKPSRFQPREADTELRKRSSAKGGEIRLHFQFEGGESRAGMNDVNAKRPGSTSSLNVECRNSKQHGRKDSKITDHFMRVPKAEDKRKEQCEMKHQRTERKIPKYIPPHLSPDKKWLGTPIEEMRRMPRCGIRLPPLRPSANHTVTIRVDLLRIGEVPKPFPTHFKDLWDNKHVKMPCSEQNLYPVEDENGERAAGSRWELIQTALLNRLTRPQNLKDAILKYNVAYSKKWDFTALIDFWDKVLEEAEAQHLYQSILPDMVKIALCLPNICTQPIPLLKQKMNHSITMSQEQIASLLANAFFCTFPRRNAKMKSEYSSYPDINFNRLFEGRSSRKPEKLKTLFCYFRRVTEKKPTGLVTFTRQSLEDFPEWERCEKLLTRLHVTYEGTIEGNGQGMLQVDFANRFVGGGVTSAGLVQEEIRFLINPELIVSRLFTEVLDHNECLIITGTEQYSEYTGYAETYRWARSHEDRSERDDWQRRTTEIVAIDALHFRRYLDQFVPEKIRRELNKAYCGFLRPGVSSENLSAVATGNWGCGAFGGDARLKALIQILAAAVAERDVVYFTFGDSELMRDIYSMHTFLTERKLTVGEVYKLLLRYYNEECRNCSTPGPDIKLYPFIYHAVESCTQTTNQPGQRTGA

With `CN(C)c1cnn(-c2ccccc2)c(=O)c1N` [PIP-1, 4-Amino-5-dimethylamino-2-phenyl-2H-pyridazin-3-one] the EC50 ([1]; 72 h) was 1810 nM, the EC50 ([1]; Rattus norvegicus, PC-12, 72 h) was roughly 1800 nM and the “Protection of rotenone-treated neuronally differentiated PC-12 cells (in words)” value [2] was “protect”. The EC50 ([2]; Rattus norvegicus, differentiated PC-12 cells, 10 μM rotenone, 72 h, read-out: EC50 (IC50) for protection from rotenone induced toxicity) was 5.36 µM, the Activity (PARG [3]) was “good” and the EC50 [4] was 2180 nM. The EC50 [5] was 1640 nM, the EC50 ([5]; Homo sapiens, SK-N-SH) was roughly 1800 nM and the “Protection of U-937 cells treated with H2O2 (activity compared to PIP-1)” value (U-937 cells) was “activity similar or better than PIP-1”. The “Cellular toxicity / adverse effects on differentiated neurons” value [6] was “no adverse effects; also recorded: no cellular toxicity”, the IC50 (PARG [7]) was 490 nM and the “PARG inhibition in vitro (in words)” value (PARG [7]) was “inhibits PARG in vitro in a dose-dependent manner; also recorded: inhibits PARG in vitro in a dose dependent manner; also recorded: inhibit PARG activity in vitro”.

In the case of `Nc1c(Cl)cnn(-c2ccccc2)c1=O` [compound 5, 4-Amino-5-chloro-2-phenyl-2H-pyridazin-3-one], the “Protection of rotenone-treated neuronally differentiated PC-12 cells (in words)” value [2] is reported as “inactive”, the “Protection of rotenone-treated neuronally differentiated PC-12 cells (in words)” value ([2]; listed as analogue 5) is reported as “do not protect” and the “PARG inhibition in vitro (in words)” value (PARG [7]) is reported as “inactive; also recorded: does not inhibit PARG”. For the same molecule, the “PARG inhibition in vitro (in words)” value (PARG [7]; listed as analogue 5) was “do not inhibit NAD^+ depletion or PARG activity”.
